System: PGE2
Test: PGE2 level in LPS-stimulated macrophage cell-line, ELISA
Assay type: cell-based, mouse
Details: RAW 264.7, 500 ng/ml LPS, 10 mg/ml test substance, 24 hours, compared to control (FIG. 2)
Method: As a positive control, ascorbic acid (AA) and a mixture of hyaluronic acid and ascorbic acid (HA+AA) was used in this Example. PGE2 is a substance causing inflammation, edema, pain and fever in body. Microphage cell-line (RAW 264.7) was inoculated into medium containing DMEM (Dulbecco's modified Eagle's medium)/FBS (Fetal Bovine Serum) under a condition of […] of CO2 concentration at a temperature of 37° C. in order to culture the cell-line. […] The complete medium was cultured additionally for 24 hours, and then PGE2 level in supernatant of medium was assayed by ELISA (enzyme-linked Immunosorbent Assay) analysis. […] Each well was washed, and then substrate solution was added.

With `O=C1O[C@H]([C@@H](O)CO)C(O)=C1O` [AA, ascorbic acid] the “PGE2 level in supernatant of medium” value was “decrease PGE2 significantly”.

Source: patent US20120283428A1, “HYALURONIC ACID DERIVATIVE EFFECTIVE AGAINST ATOPIC DERMATITIS, AND METHOD FOR MANUFACTURING SAME” (CELLINBIO CO.,LTD, priority 2009, published 2012)
